Test results taken from patent US12077503B2, “Substituted cyclic amides and their use as herbicides” (FMC CORPORATION, priority 2015, dated 2024).

Legend:
Assay type in all cases: in vivo
[1] = system: Kochia (Kochia scoparia); assay: Test A preemergence; conditions: Bassia scoparia, pre-emergence, 240 h, 0 to 100 scale (0 no effect, 100 complete control), read-out: Plant response rating, Kochia
Procedure, shortened: (§1)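 Visual injury scores from 0, no effect, to 100, complete control, were assigned versus untreated controls roughly 10 d after treatment in the greenhouse. Test chemicals, formulated with surfactant in a non-phytotoxic solvent, were applied to planted seeds as a preemergence soil spray or postemergence to one- to two-leaf plants 2 to 10 cm tall, in loam–sand soil.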

[2] = system: sedge, umbrella (small-flower umbrella sedge, Cyperus difformis); assay: Test B flooded paddy test; conditions: Cyperus difformis, 360 h, Flood, 250 g ai/ha; visually evaluated after 13 to 15 d; read-out: Plant response rating, Sedge, Umbrella (0 to 100 scale where 0 is no effect and 100 is complete control)
Procedure, shortened: (§2)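 Visual ratings (0 none to 100 complete control) are relative to untreated plants, taken 13–15 d after treatment in a greenhouse. Test material went straight into floodwater standing 3 cm above the soil, kept constant, on plants at the 2-leaf stage.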

[3] = system: barnyardgrass (Echinochloa crus-galli); assay: Test B flooded paddy test; conditions: Echinochloa crus-galli, 360 h, Flood, 250 g ai/ha; visually evaluated after 13 to 15 d; read-out: Plant response rating, Barnyardgrass (0 to 100 scale where 0 is no effect and 100 is complete control)
Procedure, shortened: as §2

[4] = system: ducksalad (Heteranthera limosa); assay: Test B flooded paddy test; conditions: Heteranthera limosa, 360 h, Flood, 250 g ai/ha; visually evaluated after 13 to 15 d; read-out: Plant response rating, Ducksalad (0 to 100 scale where 0 is no effect and 100 is complete control)
Procedure, shortened: as §2

[5] = system: rice (Oryra sativa); assay: Test B flooded paddy test; conditions: Oryza sativa, 360 h, Flood, 250 g ai/ha; visually evaluated after 13 to 15 d; read-out: Plant response rating, Rice (0 to 100 scale where 0 is no effect and 100 is complete control)
Procedure, shortened: as §2

[6] = system: barnyardgrass (Echinochloa crus-galli); assay: Test A postemergence; conditions: Echinochloa crus-galli, post-emergence, 240 h, Postemergence
Procedure, shortened: as §1

[7] = system: giant foxtail (Setaria faberii); assay: Test A postemergence; conditions: Setaria faberi, post-emergence, 240 h, Postemergence
Procedure, shortened: as §1

[8] = system: corn (Zea mays); assay: Test A postemergence; conditions: Zea mays, post-emergence, 240 h, Postemergence
Procedure, shortened: as §1

[9] = system: Galium (catchweed bedstraw, Galium aparine); assay: Test A postemergence; conditions: Galium, post-emergence, 240 h, Postemergence
Procedure, shortened: as §1

[10] = system: Kochia (Kochia scoparia); assay: Test A postemergence; conditions: Bassia scoparia, post-emergence, 240 h, Postemergence
Procedure, shortened: as §1

[11] = system: wheat (Triticum aestivum); assay: Test A postemergence; conditions: Triticum aestivum, post-emergence, 240 h, Postemergence
Procedure, shortened: as §1

[12] = system: ragweed (common ragweed, Ambrosia elatior); assay: Test A postemergence; conditions: Ambrosia artemisiifolia, post-emergence, 240 h, Postemergence
Procedure, shortened: as §1

[13] = system: pigweed (Amaranthus retroflexus); assay: Test A postemergence; conditions: Amaranthus retroflexus, post-emergence, 240 h, Postemergence
Procedure, shortened: as §1

[14] = system: blackgrass (Alopecurus myosuroides); assay: Test A postemergence; conditions: Alopecurus myosuroides, post-emergence, 240 h, Postemergence
Procedure, shortened: as §1

[15] = system: ryegrass, Italian (Italian ryegrass, Lolium multiflorum); assay: Test A postemergence; conditions: Lolium multiflorum, post-emergence, 240 h, Postemergence
Procedure, shortened: as §1

O=C1NC[C@H](c2cncs2)[C@H]1C(=O)Nc1ccccc1F [Compound 1335]
0%: pest or weed control at 500 g/ha ([1]; 500 g ai/ha, preemergence) | pest or weed control at 125 g/ha ([1]; Preemergence, 125 g ai/ha) | pest or weed control at 250 g/ha [2] | pest or weed control at 250 g/ha [3] | pest or weed control at 250 g/ha [4] | pest or weed control at 250 g/ha [5] | pest or weed control at 125 g/ha ([6]; 125 g ai/ha, visual rating about 10 d after treatment, read-out: Barnyardgrass plant response rating (0 to 100 scale, 0 no effect, 100 complete control)) | pest or weed control at 500 g/ha ([6]; 500 g ai/ha, visual injury, 0 to 100 scale (0 no effect, 100 complete control), approx. 10 d, read-out: Plant response rating, Barnyardgrass) | pest or weed control at 125 g/ha ([7]; 125 g ai/ha, visual rating about 10 d after treatment, read-out: Foxtail, Giant plant response rating (0 to 100 scale)) | pest or weed control at 500 g/ha ([7]; 500 g ai/ha, visual injury, 0 to 100 scale (0 no effect, 100 complete control), approx. 10 d, read-out: Plant response rating, Foxtail, Giant) | plant injury at 125 g/ha ([8]; 125 g ai/ha, visual rating about 10 d after treatment, read-out: Corn plant response rating (0 to 100 scale)) | Corn plant response rating (crop injury, 0 = no effect, 100 = complete kill) at 500 g/ha ([8]; 500 g ai/ha, visual injury, 0 to 100 scale (0 no effect, 100 complete control), approx. 10 d) | pest or weed control at 125 g/ha ([9]; 125 g ai/ha, visual rating about 10 d after treatment, read-out: Galium plant response rating (0 to 100 scale)) | pest or weed control at 500 g/ha ([9]; 500 g ai/ha, visual injury, 0 to 100 scale (0 no effect, 100 complete control), approx. 10 d, read-out: Plant response rating, Galium) | pest or weed control at 125 g/ha ([10]; 125 g ai/ha, visual rating about 10 d after treatment, read-out: Kochia plant response rating (0 to 100 scale)) | pest or weed control at 500 g/ha ([10]; 500 g ai/ha, visual injury, 0 to 100 scale (0 no effect, 100 complete control), approx. 10 d, read-out: Plant response rating, Kochia) | plant injury at 125 g/ha ([11]; 125 g ai/ha, visual rating about 10 d after treatment, read-out: Wheat plant response rating (0 to 100 scale)) | plant injury at 500 g/ha ([11]; 500 g ai/ha, visual injury, 0 to 100 scale (0 no effect, 100 complete control), approx. 10 d, read-out: Plant response rating, Wheat) | pest or weed control at 125 g/ha ([12]; 125 g ai/ha, visual rating about 10 d after treatment, read-out: Ragweed plant response rating (0 to 100 scale)) | pest or weed control at 500 g/ha ([12]; 500 g ai/ha, visual injury, 0 to 100 scale (0 no effect, 100 complete control), approx. 10 d, read-out: Plant response rating, Ragweed) | pest or weed control at 125 g/ha ([13]; 125 g ai/ha, visual rating about 10 d after treatment, read-out: Pigweed plant response rating (0 to 100 scale)) | pest or weed control at 500 g/ha ([13]; 500 g ai/ha, visual injury, 0 to 100 scale (0 no effect, 100 complete control), approx. 10 d, read-out: Plant response rating, Pigweed) | pest or weed control at 125 g/ha ([14]; 125 g ai/ha, visual rating about 10 d after treatment, read-out: Blackgrass plant response rating (0 to 100 scale)) | pest or weed control at 500 g/ha ([14]; 500 g ai/ha, visual injury, 0 to 100 scale (0 no effect, 100 complete control), approx. 10 d, read-out: Plant response rating, Blackgrass) | pest or weed control at 125 g/ha ([15]; 125 g ai/ha, visual rating about 10 d after treatment, read-out: Ryegrass, Italian plant response rating (0 to 100 scale)) | pest or weed control at 500 g/ha ([15]; 500 g ai/ha, visual injury, 0 to 100 scale (0 no effect, 100 complete control), approx. 10 d, read-out: Plant response rating, Ryegrass, Italian)
